Source: PubChem BioAssay AID2060613 (Molecular Pharmacology Branch, DTP, NCI, 2025)

Test system: 233499-124-R-J3-PDC complex spheroid viability
Assay: Anticancer human tumor 233499-124-R-J3-PDC patient-derived colon adenocarcinoma cell line growth inhibition [CLK]
Settings: for IC50: curve of first compound; for viability, T/C: stronger effect = lower value
In short: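 Multi-cell-type spheroids combined patient-derived tumor cells with HUVEC endothelial cells and human mesenchymal stem cells. Paired agents were dosed in half-log steps down from about clinical Cmax, or from 10 microM where Cmax was unknown.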

[1] = second compound 0.0316 µM, first compound 0.00949 µM
[2] = second compound 0.0316 µM, first compound 0.03 µM
[3] = second compound 0.0316 µM, first compound 0.0949 µM
[4] = second compound 0.0316 µM, first compound 0.3 µM
[5] = second compound 0.1 µM, first compound 0.00949 µM
[6] = second compound 0.1 µM, first compound 0.03 µM
[7] = second compound 0.1 µM, first compound 0.0949 µM
[8] = second compound 0.1 µM, first compound 0.3 µM
[9] = second compound 0.316 µM, first compound 0.00949 µM
[10] = second compound 0.316 µM, first compound 0.03 µM
[11] = second compound 0.316 µM, first compound 0.0949 µM
[12] = second compound 0.316 µM, first compound 0.3 µM
[13] = second compound 1 µM, first compound 0.00949 µM
[14] = second compound 1 µM, first compound 0.03 µM
[15] = second compound 1 µM, first compound 0.0949 µM
[16] = second compound 1 µM, first compound 0.3 µM
[17] = second compound 3.16 µM, first compound 0.00949 µM
[18] = second compound 3.16 µM, first compound 0.03 µM
[19] = second compound 3.16 µM, first compound 0.0949 µM
[20] = second compound 3.16 µM, first compound 0.3 µM
[21] = second compound 10 µM, first compound 0.00949 µM
[22] = second compound 10 µM, first compound 0.03 µM
[23] = second compound 10 µM, first compound 0.0949 µM
[24] = second compound 10 µM, first compound 0.3 µM
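Also: spheroids exposed to the drug combinations for seven days.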
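For viability, T/C in this document: percent viability relative to DMSO vehicle control wells taken as 100%.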

`C=CC(=O)Nc1cc(Nc2nccc(-c3cn(C)c4ccccc34)n2)c(OC)cc1N(C)CCN(C)C` + CNC(=O)c1ccc(Nc2nc(OC3CCCC3)c3c(-c4ccc5nc(C)oc5c4)c[nH]c3n2)c(OC)c1 showed an IC50 (second compound 0.0316 µM) greater than 0.3 µM, an IC50 (second compound 0.1 µM) greater than 0.3 µM and an IC50 (second compound 0.316 µM) greater than 0.3 µM. For the same compound, the IC50 (second compound 1 µM) was greater than 0.3 µM, the IC50 (second compound 3.16 µM) was greater than 0.3 µM and the IC50 (second compound 10 µM) was greater than 0.3 µM. For the same compound, the viability, T/C (second compound 0.0316 µM, first compound 0.000949 µM) was 70.1%, the viability, T/C (second compound 0.0316 µM, first compound 0.003 µM) was 97% and the viability, T/C [1] was 76.7%. It also gave a viability, T/C [2] of 91%, a viability, T/C [3] of 94.9% and a viability, T/C [4] of 71.8%. For the same compound, the viability, T/C (second compound 0.1 µM, first compound 0.000949 µM) was 69.8%, the viability, T/C (second compound 0.1 µM, first compound 0.003 µM) was 80.8% and the viability, T/C [5] was 77.9%. It also gave a viability, T/C [6] of 74.8%, a viability, T/C [7] of 81.5% and a viability, T/C [8] of 77.1%. For the same compound, the viability, T/C (second compound 0.316 µM, first compound 0.000949 µM) was 70%, the viability, T/C (second compound 0.316 µM, first compound 0.003 µM) was 86% and the viability, T/C [9] was 69.2%. It also gave a viability, T/C [10] of 68.4%, a viability, T/C [11] of 76.6% and a viability, T/C [12] of 78.3%. The viability, T/C (second compound 1 µM, first compound 0.000949 µM) was 78.7%, the viability, T/C (second compound 1 µM, first compound 0.003 µM) was 76.2% and the viability, T/C [13] was 75.3%. For the same compound, the viability, T/C [14] was 82.5%, the viability, T/C [15] was 69.9% and the viability, T/C [16] was 73.3%. The viability, T/C (second compound 3.16 µM, first compound 0.000949 µM) was 55.5%, the viability, T/C (second compound 3.16 µM, first compound 0.003 µM) was 71.3% and the viability, T/C [17] was 81.4%. The viability, T/C [18] was 65.8%, the viability, T/C [19] was 79.7% and the viability, T/C [20] was 67.7%. The viability, T/C (second compound 10 µM, first compound 0.000949 µM) was 73.5%, the viability, T/C (second compound 10 µM, first compound 0.003 µM) was 62.2% and the viability, T/C [21] was 76.9%. It also gave a viability, T/C [22] of 74.8%, a viability, T/C [23] of 69.6% and a viability, T/C [24] of 61.7%.
Work on `NC(=O)C(=Cn1cnc(-c2cc(C(F)(F)F)cc(C(F)(F)F)c2)n1)c1cncnc1` + CNC(=O)c1ccc(Nc2nc(OC3CCCC3)c3c(-c4ccc5nc(C)oc5c4)c[nH]c3n2)c(OC)c1 yielded an IC50 (second compound 0.0316 µM) of 0.618 µM, an IC50 (second compound 0.1 µM) of 0.263 µM and an IC50 (second compound 0.316 µM) of 0.197 µM. The IC50 (second compound 1 µM) was 0.133 µM, the IC50 (second compound 3.16 µM) was 0.157 µM and the IC50 (second compound 10 µM) was 0.161 µM. For the same compound, the viability, T/C [1] was 85.5%, the viability, T/C [2] was 85.5% and the viability, T/C [3] was 79.8%. For the same compound, the viability, T/C [4] was 78.2%, the viability, T/C (second compound 0.0316 µM, first compound 0.949 µM) was 33.4% and the viability, T/C (second compound 0.0316 µM, first compound 3 µM) was 15.5%. The viability, T/C [5] was 85.3%, the viability, T/C [6] was 80.8% and the viability, T/C [7] was 72.8%. It also gave a viability, T/C [8] of 34.5%, a viability, T/C (second compound 0.1 µM, first compound 0.949 µM) of 44.1% and a viability, T/C (second compound 0.1 µM, first compound 3 µM) of 15.7%. For the same compound, the viability, T/C [9] was 74.6%, the viability, T/C [10] was 90.3% and the viability, T/C [11] was 81.5%. The viability, T/C [12] was 31.8%, the viability, T/C (second compound 0.316 µM, first compound 0.949 µM) was 35.3% and the viability, T/C (second compound 0.316 µM, first compound 3 µM) was 12%. For the same compound, the viability, T/C [13] was 75.4%, the viability, T/C [14] was 75.1% and the viability, T/C [15] was 51.2%. It also gave a viability, T/C [16] of 39.9%, a viability, T/C (second compound 1 µM, first compound 0.949 µM) of 11.4% and a viability, T/C (second compound 1 µM, first compound 3 µM) of 10.6%. It also gave a viability, T/C [17] of 68.9%, a viability, T/C [18] of 65% and a viability, T/C [19] of 71.1%. For the same compound, the viability, T/C [20] was 26.3%, the viability, T/C (second compound 3.16 µM, first compound 0.949 µM) was 9.48% and the viability, T/C (second compound 3.16 µM, first compound 3 µM) was 4.46%. It also gave a viability, T/C [21] of 73.5%, a viability, T/C [22] of 69.8% and a viability, T/C [23] of 67%. The viability, T/C [24] was 30.5%, the viability, T/C (second compound 10 µM, first compound 0.949 µM) was 6.86% and the viability, T/C (second compound 10 µM, first compound 3 µM) was 1.62%.
In the case of `Nc1ccccc1NC(=O)c1ccc(CNC(=O)OCc2cccnc2)cc1` + CNC(=O)c1ccc(Nc2nc(OC3CCCC3)c3c(-c4ccc5nc(C)oc5c4)c[nH]c3n2)c(OC)c1, the IC50 (second compound 0.0316 µM) is reported as 1.83 µM, the IC50 (second compound 0.1 µM) is reported as 0.731 µM and the IC50 (second compound 0.316 µM) is reported as 0.233 µM. It also gave an IC50 (second compound 1 µM) of 0.199 µM, an IC50 (second compound 3.16 µM) of 0.443 µM and an IC50 (second compound 10 µM) of 0.157 µM. It also gave a viability, T/C (second compound 0.0316 µM, first compound 0.0316 µM) of 96.7%, a viability, T/C (second compound 0.0316 µM, first compound 0.1 µM) of 86% and a viability, T/C (second compound 0.0316 µM, first compound 0.316 µM) of 91.8%. For the same compound, the viability, T/C (second compound 0.0316 µM, first compound 1 µM) was 79.7%, the viability, T/C (second compound 0.0316 µM, first compound 3.16 µM) was 23.1% and the viability, T/C (second compound 0.0316 µM, first compound 10 µM) was 0.94%. The viability, T/C (second compound 0.1 µM, first compound 0.0316 µM) was 64.9%, the viability, T/C (second compound 0.1 µM, first compound 0.1 µM) was 67.4% and the viability, T/C (second compound 0.1 µM, first compound 0.316 µM) was 63.6%. The viability, T/C (second compound 0.1 µM, first compound 1 µM) was 44.8%, the viability, T/C (second compound 0.1 µM, first compound 3.16 µM) was 9.08% and the viability, T/C (second compound 0.1 µM, first compound 10 µM) was 0.5%. For the same compound, the viability, T/C (second compound 0.316 µM, first compound 0.0316 µM) was 77%, the viability, T/C (second compound 0.316 µM, first compound 0.1 µM) was 66.7% and the viability, T/C (second compound 0.316 µM, first compound 0.316 µM) was 43.6%. For the same compound, the viability, T/C (second compound 0.316 µM, first compound 1 µM) was 20%, the viability, T/C (second compound 0.316 µM, first compound 3.16 µM) was 4.82% and the viability, T/C (second compound 0.316 µM, first compound 10 µM) was 0.23%. It also gave a viability, T/C (second compound 1 µM, first compound 0.0316 µM) of 74.6%, a viability, T/C (second compound 1 µM, first compound 0.1 µM) of 70.1% and a viability, T/C (second compound 1 µM, first compound 0.316 µM) of 35.7%. It also gave a viability, T/C (second compound 1 µM, first compound 1 µM) of 15.2%, a viability, T/C (second compound 1 µM, first compound 3.16 µM) of 2.15% and a viability, T/C (second compound 1 µM, first compound 10 µM) of 0.09%. For the same compound, the viability, T/C (second compound 3.16 µM, first compound 0.0316 µM) was 71.1%, the viability, T/C (second compound 3.16 µM, first compound 0.1 µM) was 65.6% and the viability, T/C (second compound 3.16 µM, first compound 0.316 µM) was 67.2%. For the same compound, the viability, T/C (second compound 3.16 µM, first compound 1 µM) was 8.74%, the viability, T/C (second compound 3.16 µM, first compound 3.16 µM) was 1.22% and the viability, T/C (second compound 3.16 µM, first compound 10 µM) was 0.1%. For the same compound, the viability, T/C (second compound 10 µM, first compound 0.0316 µM) was 70.8%, the viability, T/C (second compound 10 µM, first compound 0.1 µM) was 50.4% and the viability, T/C (second compound 10 µM, first compound 0.316 µM) was 44.5%. It also gave a viability, T/C (second compound 10 µM, first compound 1 µM) of 20.6%, a viability, T/C (second compound 10 µM, first compound 3.16 µM) of 1.09% and a viability, T/C (second compound 10 µM, first compound 10 µM) of 0.15%.
